Values after ≈ are worked out from the molar mass of the structure shown. Blank lines part the entries; values can stand above or below the compound they belong to.
Tests used:
[1] = Passive permeability in MDCK2 cell with low efflux; format: ADME, cell-based, Canis lupus familiaris, MDCK-II; conditions: dog, MDCK
[2] = molecular target: T1, Mitogen-activated protein kinase kinase kinase kinase 4 (Homo sapiens, UniProt O95819); assay: Inhibition of human MAP4K4 transfected in 293 MSR cells assessed as inhibition of phosphorylation of traf2 at ser/thr residue by ELISA; format: cell-based
T1 sequence (O95819 whole entry): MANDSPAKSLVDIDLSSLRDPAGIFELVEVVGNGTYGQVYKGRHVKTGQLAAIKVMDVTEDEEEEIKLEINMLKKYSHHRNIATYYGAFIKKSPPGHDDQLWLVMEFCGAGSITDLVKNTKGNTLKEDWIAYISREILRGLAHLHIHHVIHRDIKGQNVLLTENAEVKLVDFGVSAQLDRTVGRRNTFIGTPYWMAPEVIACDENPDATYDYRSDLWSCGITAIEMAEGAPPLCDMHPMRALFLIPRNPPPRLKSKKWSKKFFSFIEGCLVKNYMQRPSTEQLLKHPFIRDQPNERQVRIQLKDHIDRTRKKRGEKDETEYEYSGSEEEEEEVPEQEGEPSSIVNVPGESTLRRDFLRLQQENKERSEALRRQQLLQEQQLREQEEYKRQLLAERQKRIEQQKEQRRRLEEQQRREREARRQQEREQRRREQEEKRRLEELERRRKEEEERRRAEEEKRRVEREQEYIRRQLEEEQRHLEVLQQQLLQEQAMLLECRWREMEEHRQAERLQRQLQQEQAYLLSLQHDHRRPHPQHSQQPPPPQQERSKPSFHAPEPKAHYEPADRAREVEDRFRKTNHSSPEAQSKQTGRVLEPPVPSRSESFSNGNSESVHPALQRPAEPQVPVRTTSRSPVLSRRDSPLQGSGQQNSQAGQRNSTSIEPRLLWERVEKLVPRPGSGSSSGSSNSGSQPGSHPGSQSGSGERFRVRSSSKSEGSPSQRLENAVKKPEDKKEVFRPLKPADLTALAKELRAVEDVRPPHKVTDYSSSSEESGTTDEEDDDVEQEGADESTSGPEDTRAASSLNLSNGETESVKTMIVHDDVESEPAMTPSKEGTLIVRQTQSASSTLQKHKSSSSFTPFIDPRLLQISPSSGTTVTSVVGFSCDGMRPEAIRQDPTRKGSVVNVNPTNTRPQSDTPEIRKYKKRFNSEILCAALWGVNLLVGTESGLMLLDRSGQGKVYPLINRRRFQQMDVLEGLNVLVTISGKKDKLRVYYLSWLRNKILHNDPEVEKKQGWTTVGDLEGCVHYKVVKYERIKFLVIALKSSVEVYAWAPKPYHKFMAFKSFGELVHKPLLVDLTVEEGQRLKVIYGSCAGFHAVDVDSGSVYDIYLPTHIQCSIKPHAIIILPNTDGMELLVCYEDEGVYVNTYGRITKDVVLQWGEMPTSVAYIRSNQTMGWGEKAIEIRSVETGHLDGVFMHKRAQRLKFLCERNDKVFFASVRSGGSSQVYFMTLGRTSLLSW

[3] = Lipophilicity, log D of the compound; format: physicochemical; conditions: octanol/water
[4] = molecular target: T1, Mitogen-activated protein kinase kinase kinase kinase 4; assay: Inhibition of recombinant human MAP4K4 catalytic domain in presence of 1 mM ATP by FRET assay
[5] = molecular target: T1, Mitogen-activated protein kinase kinase kinase kinase 4; assay: Inhibition of recombinant human MAP4K4 catalytic domain in presence of 10 uM ATP (Km) by FRET assay
CYP3A4 [6] = molecular target: T2, CYP3A4 (Homo sapiens, UniProt P08684); assay: Time dependent inhibition of CYP3A4 (unknown origin) using midazolam as substrate at 60 uM; format: ADME; conditions: probe midazolam
T2 sequence (P08684 whole entry): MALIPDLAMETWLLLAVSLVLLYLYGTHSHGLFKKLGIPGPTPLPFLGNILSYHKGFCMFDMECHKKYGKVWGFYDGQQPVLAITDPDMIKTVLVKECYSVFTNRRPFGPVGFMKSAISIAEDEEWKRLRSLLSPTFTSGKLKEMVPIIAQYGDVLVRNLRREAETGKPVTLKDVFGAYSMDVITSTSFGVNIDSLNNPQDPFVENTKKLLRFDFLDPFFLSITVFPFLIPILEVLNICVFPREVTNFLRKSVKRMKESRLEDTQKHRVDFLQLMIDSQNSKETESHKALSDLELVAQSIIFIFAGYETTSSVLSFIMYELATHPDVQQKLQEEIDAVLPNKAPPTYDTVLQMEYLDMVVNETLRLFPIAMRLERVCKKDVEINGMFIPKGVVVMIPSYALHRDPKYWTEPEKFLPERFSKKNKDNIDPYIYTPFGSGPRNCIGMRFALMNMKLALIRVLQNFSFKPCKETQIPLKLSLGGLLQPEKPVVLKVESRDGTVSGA

[7] = molecular target: Voltage-gated inwardly rectifying potassium channel KCNH2 (Homo sapiens, UniProt Q12809); assay: Inhibition of human ERG transfected in HEK293 cells; format: cell-based
Sequence of Voltage-gated inwardly rectifying potassium channel KCNH2 (Q12809 whole entry): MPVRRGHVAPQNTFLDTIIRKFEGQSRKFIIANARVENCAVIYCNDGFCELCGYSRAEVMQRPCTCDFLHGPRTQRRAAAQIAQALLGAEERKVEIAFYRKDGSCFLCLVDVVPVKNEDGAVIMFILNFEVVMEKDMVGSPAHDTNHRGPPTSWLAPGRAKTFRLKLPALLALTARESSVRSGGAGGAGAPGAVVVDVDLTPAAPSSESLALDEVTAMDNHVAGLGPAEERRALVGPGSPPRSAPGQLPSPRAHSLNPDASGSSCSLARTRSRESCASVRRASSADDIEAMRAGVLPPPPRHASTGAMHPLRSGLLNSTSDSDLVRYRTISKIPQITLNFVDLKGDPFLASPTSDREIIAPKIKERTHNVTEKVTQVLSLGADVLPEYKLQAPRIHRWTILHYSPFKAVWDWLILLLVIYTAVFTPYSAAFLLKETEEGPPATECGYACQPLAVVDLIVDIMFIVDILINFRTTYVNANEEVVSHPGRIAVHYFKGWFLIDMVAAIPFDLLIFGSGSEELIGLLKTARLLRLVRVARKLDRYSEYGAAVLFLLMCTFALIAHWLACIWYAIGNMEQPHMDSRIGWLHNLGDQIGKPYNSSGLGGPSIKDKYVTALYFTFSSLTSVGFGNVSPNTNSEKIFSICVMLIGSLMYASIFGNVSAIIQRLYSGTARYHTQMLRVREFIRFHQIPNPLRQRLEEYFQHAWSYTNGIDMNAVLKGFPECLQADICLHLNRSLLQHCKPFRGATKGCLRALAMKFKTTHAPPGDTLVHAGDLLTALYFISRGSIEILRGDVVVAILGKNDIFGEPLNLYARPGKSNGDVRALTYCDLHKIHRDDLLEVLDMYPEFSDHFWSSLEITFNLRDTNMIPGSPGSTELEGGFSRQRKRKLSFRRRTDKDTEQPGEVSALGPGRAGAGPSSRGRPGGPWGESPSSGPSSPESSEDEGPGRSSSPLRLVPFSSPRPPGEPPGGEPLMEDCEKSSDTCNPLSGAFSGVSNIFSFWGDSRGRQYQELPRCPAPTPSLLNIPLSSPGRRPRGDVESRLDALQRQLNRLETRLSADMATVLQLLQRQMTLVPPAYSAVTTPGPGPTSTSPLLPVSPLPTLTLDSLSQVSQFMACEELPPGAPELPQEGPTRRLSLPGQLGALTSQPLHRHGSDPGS

CYP2C8 = molecular target: T3, CYP2C8 (Homo sapiens, UniProt P10632); assay: Inhibition of CYP2C8 (unknown origin) at 3 uM; format: ADME
T3 sequence (P10632 whole entry): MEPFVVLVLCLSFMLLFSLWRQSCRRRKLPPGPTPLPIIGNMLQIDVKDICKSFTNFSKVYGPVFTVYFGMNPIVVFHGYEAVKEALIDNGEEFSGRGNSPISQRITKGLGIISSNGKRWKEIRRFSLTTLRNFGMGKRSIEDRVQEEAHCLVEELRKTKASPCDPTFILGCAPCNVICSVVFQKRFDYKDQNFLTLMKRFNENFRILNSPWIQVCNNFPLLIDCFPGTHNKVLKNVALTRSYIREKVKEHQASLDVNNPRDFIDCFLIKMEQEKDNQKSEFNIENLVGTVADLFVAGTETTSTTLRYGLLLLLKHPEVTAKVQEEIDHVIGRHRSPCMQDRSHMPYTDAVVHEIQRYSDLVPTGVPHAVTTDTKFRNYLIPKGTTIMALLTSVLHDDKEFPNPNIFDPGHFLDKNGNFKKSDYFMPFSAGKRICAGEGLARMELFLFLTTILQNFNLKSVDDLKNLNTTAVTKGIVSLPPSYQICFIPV

CYP2C9 = CYP2C9 (Homo sapiens, UniProt P11712); assay: Inhibition of CYP2C9 (unknown origin) at 3 uM; format: ADME
Sequence of CYP2C9 (P11712 whole entry): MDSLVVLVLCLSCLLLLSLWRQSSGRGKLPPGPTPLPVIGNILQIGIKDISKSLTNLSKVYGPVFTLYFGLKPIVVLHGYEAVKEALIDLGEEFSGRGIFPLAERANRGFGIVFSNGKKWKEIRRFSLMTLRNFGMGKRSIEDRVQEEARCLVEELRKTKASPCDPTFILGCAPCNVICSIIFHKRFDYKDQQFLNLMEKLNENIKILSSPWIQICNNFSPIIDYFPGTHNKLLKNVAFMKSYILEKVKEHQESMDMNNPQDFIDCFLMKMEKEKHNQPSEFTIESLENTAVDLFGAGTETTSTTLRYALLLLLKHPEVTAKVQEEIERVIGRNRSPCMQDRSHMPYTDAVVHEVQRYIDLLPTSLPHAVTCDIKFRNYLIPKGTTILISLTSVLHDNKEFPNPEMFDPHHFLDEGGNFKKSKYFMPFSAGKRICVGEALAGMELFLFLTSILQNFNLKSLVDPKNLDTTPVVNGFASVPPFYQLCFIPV

CYP2D6 = CYP2D6 (Homo sapiens, UniProt P10635); assay: Inhibition of CYP2D6 (unknown origin) at 3 uM; format: ADME
Sequence of CYP2D6 (P10635 whole entry): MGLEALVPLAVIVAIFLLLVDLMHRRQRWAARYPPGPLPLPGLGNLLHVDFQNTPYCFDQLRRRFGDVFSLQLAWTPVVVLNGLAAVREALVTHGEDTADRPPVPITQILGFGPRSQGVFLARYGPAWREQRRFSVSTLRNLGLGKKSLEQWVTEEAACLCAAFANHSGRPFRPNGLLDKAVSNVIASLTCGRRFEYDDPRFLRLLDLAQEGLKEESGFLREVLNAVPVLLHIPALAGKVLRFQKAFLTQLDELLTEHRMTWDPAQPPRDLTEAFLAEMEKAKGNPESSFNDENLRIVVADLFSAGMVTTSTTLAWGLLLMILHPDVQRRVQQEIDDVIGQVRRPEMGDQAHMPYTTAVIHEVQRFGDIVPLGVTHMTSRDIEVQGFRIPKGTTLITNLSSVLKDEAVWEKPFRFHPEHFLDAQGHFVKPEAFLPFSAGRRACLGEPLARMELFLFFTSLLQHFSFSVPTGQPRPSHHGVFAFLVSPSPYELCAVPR

Epithelial cell = assay: Cytotoxicity against human liver epithelial cells
CYP1A2 = molecular target: T4, CYP1A2 (Homo sapiens, UniProt P05177); assay: Inhibition of CYP1A2 (unknown origin) at 3 uM; format: ADME
T4 sequence (P05177 whole entry): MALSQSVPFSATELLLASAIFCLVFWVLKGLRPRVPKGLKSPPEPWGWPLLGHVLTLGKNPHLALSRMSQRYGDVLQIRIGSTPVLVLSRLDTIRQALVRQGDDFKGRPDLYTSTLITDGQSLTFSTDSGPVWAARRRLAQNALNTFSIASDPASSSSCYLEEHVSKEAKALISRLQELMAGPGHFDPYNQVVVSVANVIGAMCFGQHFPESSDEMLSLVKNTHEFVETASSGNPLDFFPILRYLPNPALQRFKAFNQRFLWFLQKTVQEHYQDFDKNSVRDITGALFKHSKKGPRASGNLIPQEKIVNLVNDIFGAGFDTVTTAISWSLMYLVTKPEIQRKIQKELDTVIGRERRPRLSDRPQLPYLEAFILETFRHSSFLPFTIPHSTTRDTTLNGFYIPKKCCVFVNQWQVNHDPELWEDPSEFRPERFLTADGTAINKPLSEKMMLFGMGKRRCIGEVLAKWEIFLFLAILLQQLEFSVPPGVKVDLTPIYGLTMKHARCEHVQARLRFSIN

[8] = Solubility of compound at pH 6.5; format: physicochemical; conditions: buffer
[9] = Solubility of compound at pH 1.2; format: physicochemical; conditions: buffer
Liver microsome = assay: Unbound intrinsic clearance in human liver microsomes; format: ADME
CYP3A4 [10] = molecular target: T2, CYP3A4; assay: Inhibition of CYP3A4 (unknown origin) at 3 uM; format: ADME
CYP3A4 [11] = molecular target: T2, CYP3A4; assay: Time dependent inhibition of CYP3A4 (unknown origin) using midazolam as substrate at 30 uM; format: ADME; conditions: probe midazolam
Salmonella typhimurium = assay: Mutagenicity in Salmonella typhimurium by Ames test; format: toxicity, organism-based; conditions: salmonella enterica subsp. enterica serovar typhimurium
Mus musculus [12] = assay: Decrease in blood glucose level in ob/ob mouse at 10 mg/kg, po bid for 4 weeks; format: functional; conditions: 672 h
Misshapen-like kinase 1 = Misshapen-like kinase 1 (Homo sapiens, UniProt Q8N4C8); assay: Inhibition of MINK (unknown origin) in presence of ATP (Km)
[13] = Fraction unbound in mouse plasma at 10 mg/kg, po; format: ADME, organism-based
Mus musculus [14] = assay: Inhibition of LPS-induced TNF-alpha level in C57/Bl6 mouse blood at 15 mg/kg, po administered 30 mins prior to LPS challenge measured after […]; format: functional; conditions: C57/BI6, Blood
Cytochrome P450 1A2 = molecular target: T5, Cytochrome P450 1A2 (Homo sapiens, UniProt P05177); assay: Inhibition of CYP1A2 (unknown origin); format: ADME
T5 sequence (P05177 whole entry): T4 sequence (P05177 whole entry)

Plasma = assay: Plasma concentration in C57/Bl6 mouse at 15 mg/kg, po; format: ADME, organism-based, C57/BI6; conditions: in vivo
[15] = molecular target: TRAF2 and NCK-interacting protein kinase (Homo sapiens, UniProt Q9UKE5); assay: Inhibition of TNIK (unknown origin) in presence of ATP (Km)

SMILES: Nc1ncc(-c2cnc(N)c(-c3ccc(Cl)cc3)c2)cn1
inhibition at 60 µM (CYP3A4 [6]): 24%
IC50 [7]: > 10000 nM
inhibition at 3 µM (CYP2C8): < 15%
inhibition at 3 µM (CYP2C9): < 15%
inhibition at 3 µM (CYP2D6): < 15%
IC50 (Epithelial cell): > 300000 nM
inhibition at 3 µM (CYP1A2): < 15%
solubility [8]: 2 µg/mL (≈ 0.00672 mM)
solubility ([9]; read-out: solubility): 3960 µg/mL (≈ 13.3 mM)
CL free (Liver microsome): 13 mL/min/kg
inhibition at 3 µM (CYP3A4 [10]): < 15%
inhibition at 30 µM (CYP3A4 [11]): 8%
Activity (Salmonella typhimurium): Non-toxic

SMILES: CS(=O)(=O)c1ccc(-c2cc(-c3ccc(O)cc3)cnc2N)cc1
Papp [1]: 17.2 ×10⁻⁶ cm/s

SMILES: CS(=O)(=O)c1ccc(-c2cc(-c3ccc(C(N)=O)cc3)cnc2N)cc1
Papp [1]: 6.7 ×10⁻⁶ cm/s

SMILES: Nc1ccc(-c2cnc(N)c(-c3ccc(Cl)cc3)c2)cn1
inhibition in vivo at 10 mg/kg (Mus musculus [12]): 44%
inhibition at 60 µM (CYP3A4 [6]): 61%
IC50 (Misshapen-like kinase 1): 8 nM
IC50 [7]: 1800 nM
fraction unbound [13]: 0.038
inhibition at 3 µM (CYP2C8): < 15%
inhibition at 3 µM (CYP2C9): < 15%
inhibition in vivo at 15 mg/kg (Mus musculus [14]): > 90%
inhibition at 3 µM (CYP2D6): < 15%
IC50 (Epithelial cell): > 119000 nM
IC50 [2]: 160 nM
IC50 (Cytochrome P450 1A2): 3000 nM
solubility [8]: 5800 µg/mL (≈ 19.5 mM)
solubility [9]: 13000 µg/mL (≈ 43.8 mM)
CL free (Liver microsome): 89 mL/min/kg
Papp [1]: 7.1 ×10⁻⁶ cm/s
inhibition at 3 µM (CYP3A4 [10]): < 15%
Cp (Plasma): 439 ng/mL
inhibition at 30 µM (CYP3A4 [11]): 54%
IC50 [15]: 15 nM
IC50 [5]: 3.7 nM
Activity (Salmonella typhimurium): Toxic

SMILES: Nc1ncc(-c2cc[nH]c(=O)c2)cc1-c1ccc(Cl)cc1
Papp [1]: 15.7 ×10⁻⁶ cm/s

The remaining lines, values ahead:

Papp [1]: 3.5 ×10⁻⁶ cm/s
SMILES: NC(=O)c1ccc(-c2cncc(-c3ccc(OC4CC4)cc3)c2)cc1

IC50 [2]: 6300 nM
logD [3]: 3.6
IC50 [4]: > 10000 nM
IC50 [5]: 94 nM
SMILES: NC(=O)c1ccc(-c2ncc(-c3ccc(Cl)cc3)o2)cc1

Papp [1]: 4.4 ×10⁻⁶ cm/s
SMILES: NC(=O)c1ccc(-c2cc(-c3ccc(Cl)cc3)ccn2)cc1

Papp [1]: 8.7 ×10⁻⁶ cm/s
SMILES: COc1ccc(-c2cncc(-c3ccc(C(N)=O)cc3)c2)cc1

Papp [1]: 15.6 ×10⁻⁶ cm/s
SMILES: Cn1c(-c2ccc(Cl)cc2)cnc1-c1ccc(C(N)=O)cc1

Papp [1]: 2.9 ×10⁻⁶ cm/s
SMILES: NC(=O)c1ccc(-c2cn(-c3ccc(Cl)cc3)cn2)cc1

Papp [1]: 8.7 ×10⁻⁶ cm/s
SMILES: NC(=O)c1ccc(-c2cncc(-c3ccc(Cl)cc3)c2)cc1

IC50 [2]: > 30000 nM
IC50 [4]: > 10000 nM
IC50 [5]: 248 nM
SMILES: NC(=O)c1ccc(-n2cc(-c3ccc(Cl)cc3)cn2)cc1

From ChEMBL document CHEMBL3751803, “Discovery of an in Vivo Tool to Establish Proof-of-Concept for MAP4K4-Based Antidiabetic Treatment” (ACS Med Chem Lett, 2015)
